Here are results for 16 compounds from patent publication US11357779B2 (G1 Therapeutics, Inc., priority 2018, dated 2022).

Entries after “also recorded” stand apart in the source; their conditions may differ.

Data set [1] is described as follows: Crystallization and slurry experiments, morphic forms of Compound II (XRPD, characterization). It is filed as physicochemical. The note with it: morphic forms (XRPD patterns) of Compound II. Here is the method: Eleven unique XRPD patterns (Form A-Form K) of Compound II were obtained from crystallization and slurry experiments using various solvents.
Forms A, B, and D were evaluated as solid state forms.

Data set [2] in a line: TG and TG-IR analysis of Form B. It is filed as physicochemical. The conditions noted are these: TG-IR. As to the method:
The TG analyses were performed using a TA Instrument Q5000 thermogravimetric analyzer. Temperature calibration was performed using nickel and Alumel. The sample was placed in a platinum pan and inserted into the TG furnace. The furnace was heated under a nitrogen purge to 350° C. at a rate of 10° C./min.
Thermogravimetric infrared (TG-IR) analysis was performed on a TA Instruments Q5000 IR thermogravimetric (TG) analyzer interfaced to a Magna-IR 560@ Fourier transform infrared (FT-IR) spectrophotometer (Thermo Nicolet) equipped with an Ever-Glo mid/far IR source, a potassium bromide (KBr) beamsplitter, and a mercury cadmium telluride (MCT-A) detector. The FT-IR wavelength verification was performed using polystyrene, and the TG calibration standards were nickel and Alumel™. The sample was placed in a platinum sample pan and the pan was inserted into the TG furnace. The TG instrument was started first, immediately followed by the FT-IR instrument. The TG instrument was operated under a flow of helium at 90 and 10 cc/minute for the purge and balance, respectively. The furnace was heated under helium at a rate of 20° C./minute to a final temperature of approximately 140° C. IR spectra were collected approximately every 32 seconds for approximately 7.5 minutes. Each IR spectrum represents 32 co-added scans collected at a spectral resolution of 4 cm-1. Volatiles were identified from a search of the High Resolution Nicolet Vapor Phase spectral library.
A TG-IR experiment was carried out on pure Form B (Sample 11 from the small-scale slurry experiments) at […] in an effort to investigate the stability of Form B at elevated temperature by monitoring potential release of hydrogen chloride.

Data set [3] can be described thus: Dynamic vapor sorption (moisture sorption) experiment. Here is the method:
Dynamic vapor sorption experiments were performed on Form A, Form B, and Form D. Table 103 provides the results of the DVS experiment.

The nature of data set [4]: Stability study under thermal stress, 60° C. for 7 days. It counts as physicochemical. As to the method:
Forms A, B, and D were stored in an oven maintained at 60° C. for 7 days.

The nature of data set [5]: Vacuum drying experiments of Form B. It counts as physicochemical. The conditions noted are these: for Weight Loss (calculated by weight before and after drying): Vacuum oven; for XRPD Result: after Vacuum oven. From the text: Weighted amounts of impure Form B and pure Form B samples from the previous experiments (Samples 14, 8, 11, 19, 21, and 23) were vacuum dried at ambient or elevated temperatures using various vacuum levels from approximately 14 in Hg up 27-28 in Hg. The resulting materials were weighted out prior to submission for XRPD analysis.
The XRPD pattern of the resulting material was consistent with Form B, however, tiny shifting in a few peak positions in the XRPD pattern was observed (FIG. 26).

Data set [6] in a line: Solubility estimate by aliquot addition with visual observation. It counts as physicochemical. As to the method:
Solubility estimates of impure Form B were attempted in various predominantly HCl acidic aqueous acetone solvent mixtures using an aliquot addition method that involved visual observation. Aliquots of various solvents or diluent/organic solvent mixtures were added to measured amounts of impure Form B with agitation (typically sonication) at ambient temperature until complete dissolution was achieved, as judged by visual observation. Solubilities were calculated based on the total solvent used to give a solution; actual solubilities may be greater because of the volume of solvent portions utilized or a slow rate of dissolution. […] If dissolution occurred at the first aliquot, the value was reported as “>”. Due to the haziness of the obtained samples, effective solubility estimates were difficult to discern.

Setting [7] is: 0.1M HCl:acetone 20:80, ambient.
The mark [8] stands for this setting: 0.5M HCl:acetone 10:90, ambient.
The mark [9] stands for this setting: 0.5M HCl:acetone 20:80, ambient.
Where [10] appears, read: 1.0M HCl:acetone 75:25, ambient.

With `CC(C)N1CCN(c2ccc(Nc3ncc4cc5n(c4n3)C3(CCCCC3)CNC5=O)nc2)CC1.Cl.Cl` [A], the “Possible Form” value in data set [1] is “Hydrate”.

Take `CC(C)N1CCN(c2ccc(Nc3ncc4cc5n(c4n3)C3(CCCCC3)CNC5=O)nc2)CC1.Cl.Cl` [B]: the “Possible Form” value in data set [1] is “Hydrate”.

Regarding `CC(C)N1CCN(c2ccc(Nc3ncc4cc5n(c4n3)C3(CCCCC3)CNC5=O)nc2)CC1.Cl.Cl` [C], the “Possible Form” value in data set [1] is recorded as “EtOAc”.

Turning to `CC(C)N1CCN(c2ccc(Nc3ncc4cc5n(c4n3)C3(CCCCC3)CNC5=O)nc2)CC1.Cl.Cl` [Compound II, Form B], the “Weight (%)” value is reported as 99.93% in data set [2] (0.38 min, 36.60 ° C.); 99.87% in data set [2] (0.55 min, 40.20 ° C.); 99.77% in data set [2] (0.73 min, 43.80 ° C.); 99.63% in data set [2] (0.90 min, 47.40 ° C.); 99.46% in data set [2] (1.08 min, 51.00 ° C.); 99.26% in data set [2] (1.25 min, 54.60 ° C.). Moreover, the “Weight (%)” value came out at 99.03% in data set [2] (1.43 min, 58.20 ° C.); 98.79% in data set [2] (1.61 min, 61.80 ° C.); 98.52% in data set [2] (1.78 min, 65.40 ° C.); 98.22% in data set [2] (1.96 min, 69.00 ° C.); 97.86% in data set [2] (2.14 min, 72.60 ° C.); 97.44% in data set [2] (2.32 min, 76.20 ° C.). In addition, the “Weight (%)” value in data set [2] (2.50 min, 79.80 ° C.) stood at 96.95%; in data set [2] (2.68 min, 83.40 ° C.) it was 96.45%; in data set [2] (2.86 min, 87.00 ° C.), 95.97%; in data set [2] (3.04 min, 90.60 ° C.), 95.57%; in data set [2] (3.23 min, 94.20 ° C.), 95.23%; in data set [2] (3.41 min, 97.80 ° C.), 94.95%. The “Weight (%)” value in data set [2] (3.59 min, 101.40 ° C.) was 94.71%; in data set [2] (3.77 min, 105.00 ° C.) it was 94.50%; in data set [2] (3.95 min, 108.60 ° C.), 94.32%; in data set [2] (4.13 min, 112.20 ° C.), 94.18%; in data set [2] (4.31 min, 115.80 ° C.), 94.06%; in data set [2] (4.68 min, 123.00 ° C.), 93.86%. Besides, the “Weight (%)” value in data set [2] (4.86 min, 126.60 ° C.) turned out to be 93.78%; in data set [2] (5.04 min, 130.20 ° C.) it was 93.71%; in data set [2] (5.22 min, 133.80 ° C.), 93.65%.

For `CC(C)N1CCN(c2ccc(Nc3ncc4cc5n(c4n3)C3(CCCCC3)CNC5=O)nc2)CC1.Cl.Cl` [D], the “Possible Form” value in data set [1] is “Hydrate”.

With `CC(C)N1CCN(c2ccc(Nc3ncc4cc5n(c4n3)C3(CCCCC3)CNC5=O)nc2)CC1.Cl.Cl` [E], in data set [1], the “Possible Form” value is recorded as “Acetone”.

For the compound `CC(C)N1CCN(c2ccc(Nc3ncc4cc5n(c4n3)C3(CCCCC3)CNC5=O)nc2)CC1.Cl.Cl` [F], in data set [1], the “Possible Form” value is recorded as “Unstable”.

Take `CC(C)N1CCN(c2ccc(Nc3ncc4cc5n(c4n3)C3(CCCCC3)CNC5=O)nc2)CC1.Cl.Cl` [Form A]: the figures for the moisture adsorbed in data set [3] (60% RH) and in data set [3] (90% RH) were 14.9 wt % and 15.8 wt %, respectively. In addition, the “% wt change at 60% RH” value in data set [3] (DVS, 60% RH) stood at 14.9 % wt. For the same compound, the “% wt change at 90% RH” value in data set [3] (DVS, 90% RH) is listed as 15.8 % wt. Besides, in data set [3] (after DVS, dried at 60° C. and 0% RH), the “stability in the moisture sorption experiment (XRPD of dried sample)” value was “unstable; also recorded: not stable”. Moreover, in data set [3] (after moisture sorption experiment, dried at 60° C. and 0% RH), the “XRPD (post DVS)” value is given as “Form K”. In data set [4], the “XRPD pattern after thermal stress” value was “A new pattern was found; also recorded: converted to a new Form”.

With `CC(C)N1CCN(c2ccc(Nc3ncc4cc5n(c4n3)C3(CCCCC3)CNC5=O)nc2)CC1.Cl.Cl` [Form C], the “XRPD pattern after thermal stress” value in data set [4] is given as “remained unchanged”.

Consider `CC(C)N1CCN(c2ccc(Nc3ncc4cc5n(c4n3)C3(CCCCC3)CNC5=O)nc2)CC1.Cl.Cl` [G], for which the “Possible Form” value in data set [1] is “Anhydrate”.

Consider `CC(C)N1CCN(c2ccc(Nc3ncc4cc5n(c4n3)C3(CCCCC3)CNC5=O)nc2)CC1.Cl.Cl` [H], for which, in data set [1], the “Possible Form” value is recorded as “n-PrOH”.

In the case of `CC(C)N1CCN(c2ccc(Nc3ncc4cc5n(c4n3)C3(CCCCC3)CNC5=O)nc2)CC1.Cl.Cl` [Sample 11], in data set [5] (22° C., 0.5 h (~14 in Hg)), the “Weight Loss (calculated by weight before and after drying)” value was “Weight loss: 1.8%”; the “XRPD Result” value is “Form B tiny peak”.

For the compound `CC(C)N1CCN(c2ccc(Nc3ncc4cc5n(c4n3)C3(CCCCC3)CNC5=O)nc2)CC1.Cl.Cl` [Sample 19], in data set [5] (RT, 1.0 h (~27-28 in Hg)), the “Weight Loss (calculated by weight before and after drying)” value is “Weight loss: 9.7%”; the “XRPD Result” value is “Form B + broad”.

With `CC(C)N1CCN(c2ccc(Nc3ncc4cc5n(c4n3)C3(CCCCC3)CNC5=O)nc2)CC1.Cl.Cl` [Sample 21], the “Weight Loss (calculated by weight before and after drying)” value in data set [5] (22° C., 0.5 h (~28 in Hg)) is reported as “Weight loss: 30.6%”.

For the compound `CC(C)N1CCN(c2ccc(Nc3ncc4cc5n(c4n3)C3(CCCCC3)CNC5=O)nc2)CC1.Cl.Cl` [Sample 23], in data set [5] (22° C., 1.0 h (~27-28 in Hg)), the “Weight Loss (calculated by weight before and after drying)” value is “Weight loss: 4.7%”; the “XRPD Result” value is “Most likely Form B”.

Turning to `CC(C)N1CCN(c2ccc(Nc3ncc4cc5n(c4n3)C3(CCCCC3)CNC5=O)nc2)CC1.Cl.Cl` [impure Form B], the Observation result in data set [6] (setting [7]) is “solids remained”; in data set [6] (setting [8]), “solids remained”; in data set [6] (setting [9]), “solids remained”; in data set [6] (1M HCl:acetone 5:95, ambient) it was “solids remained”; in data set [6] (1M HCl:acetone 10:90, ambient) it was “solids remained”; in data set [6] (1M HCl:acetone 20:80, ambient), “solids remained”. In addition, the Observation entry in data set [6] (1M HCl:acetone 33:67, ambient) was “hazy solution”; in data set [6] (1M HCl:acetone 50:50, ambient), “hazy solution”; in data set [6] (1M HCl:acetone 60:40, ambient), “hazy solution”; in data set [6] (1M HCl:acetone 67:33, ambient), “hazy solution”; in data set [6] (setting [10]), “hazy solution”; in data set [6] (2.0M HCl, ambient), “hazy solution”. For the same compound, the Observation entry in data set [6] (5.0M HCl, ambient) was “hazy solution”; in data set [6] (5.0M HCl:water 1:2, ambient), “clear solution”; in data set [6] (Water, ambient), “solids remained”; in data set [6] (Water:acetone 1:2, ambient), “hazy solution”; in data set [6] (Water:acetone 3:1, ambient), “solids remained”. The Solubility was less than 1000 µg/mL in data set [6] (setting [7]); less than 1000 µg/mL in data set [6] (setting [8]); less than 1000 µg/mL in data set [6] (setting [9]); less than 1000 µg/mL in data set [6] (1M HCl:acetone 5:95, ambient); less than 1000 µg/mL in data set [6] (1M HCl:acetone 10:90, ambient); less than 1000 µg/mL in data set [6] (1M HCl:acetone 20:80, ambient). Further, the Solubility is 2000 µg/mL in data set [6] (1M HCl:acetone 33:67, ambient); 4000 µg/mL in data set [6] (1M HCl:acetone 50:50, ambient); 4000 µg/mL in data set [6] (1M HCl:acetone 60:40, ambient); 6000 µg/mL in data set [6] (1M HCl:acetone 67:33, ambient); 7000 µg/mL in data set [6] (setting [10]); 4000 µg/mL in data set [6] (2.0M HCl, ambient). Besides, the Solubility is 3000 µg/mL in data set [6] (5.0M HCl, ambient); 7000 µg/mL in data set [6] (5.0M HCl:water 1:2, ambient); 3000 to 7000 µg/mL in data set [6] (HCl acidic aqueous acetone solvent mixtures, ambient temperature, visual estimate); less than 7000 µg/mL in data set [6] (Water, ambient); 3000 µg/mL in data set [6] (Water:acetone 1:2, ambient); less than 3000 µg/mL in data set [6] (Water:acetone 3:1, ambient).

By Solubility is commonly meant how much of the substance goes into solution per volume.
